Experimental data as given in the kinase profiling compilation of Christmann-Franck et al. (2016).

Columns and labels:
Test in all cases: radiometric filter-binding kinase assay
DYRK2 (human) = DYRK2 (human) (UniProt Q92630)
ERBB4 (human) = ERBB4 (human) (UniProt Q15303)
RPS6KA1 KD1 KD2 (human) = RPS6KA1 KD1 KD2 (human) (UniProt Q15418)
PRKAA1 or PRKAA2 (rat) = details: accession and sequence are those of the human protein
MAPK8 (human) = MAPK8 (human) (UniProt P45983)
EPHB2 (human) = EPHB2 (human) (UniProt P29323); details: compound 0.1 µM
[1] = tested on: AKT1 (human), P31749 [S473D]
CHEK2 (human) = CHEK2 (human) (UniProt O96017)
PRKCA (human) = PRKCA (human) (UniProt P17252)
PLK1 (human) = PLK1 (human) (UniProt P53350)
MAPK13 (human) = MAPK13 (human) (UniProt O15264)
AURKA (human) = AURKA (human) (UniProt O14965); details: compound 0.1 µM
SYK (human) = SYK (human) (UniProt P43405)
CaMK1 (human) = CaMK1 (human) (UniProt Q14012)
MAPK10 (human) = MAPK10 (human) (UniProt P53779); details: compound 0.1 µM
MAPK3 (human) = MAPK3 (human) (UniProt P27361)
MAPK1 (human) = MAPK1 (human) (UniProt P28482)
MAPKAPK3 (human) = MAPKAPK3 (human) (UniProt Q16644); details: compound 0.1 µM
PAK4 (human) = PAK4 (human) (UniProt O96013)
DYRK1A (human) = DYRK1A (human) (UniProt Q13627)
PRKACA (human) = PRKACA (human) (UniProt P17612)
EPHB3 (human) = EPHB3 (human) (UniProt P54753)
IKBKE (human) = IKBKE (human) (UniProt Q14164)
MAPK12 (human) = MAPK12 (human) (UniProt P53778)
HIPK2 (human) = HIPK2 (human) (UniProt Q9H2X6)
MKNK1 (human) = MKNK1 (human) (UniProt Q9BUB5)
MST4 (human) = MST4 (human) (UniProt Q9P289)
BRSK2 (human) = BRSK2 (human) (UniProt Q8IWQ3)
NUAK1 (human) = NUAK1 (human) (UniProt O60285)
MARK2 (human) = MARK2 (human) (UniProt Q7KZI7); details: compound 0.1 µM
PAK7 (human) = PAK7 (human) (UniProt Q9P286)
[2] = tested on: SGK1 (human), O00141 [S422D]
MAP3K11 (human) = MAP3K11 (human) (UniProt Q16584)
MAP2K6 (human) = MAP2K6 (human) (UniProt P52564); details: compound 0.1 µM
NEK2 (human) = NEK2 (human) (UniProt P51955)

Chain of DYRK2 (human) (Q92630 whole entry, looked up): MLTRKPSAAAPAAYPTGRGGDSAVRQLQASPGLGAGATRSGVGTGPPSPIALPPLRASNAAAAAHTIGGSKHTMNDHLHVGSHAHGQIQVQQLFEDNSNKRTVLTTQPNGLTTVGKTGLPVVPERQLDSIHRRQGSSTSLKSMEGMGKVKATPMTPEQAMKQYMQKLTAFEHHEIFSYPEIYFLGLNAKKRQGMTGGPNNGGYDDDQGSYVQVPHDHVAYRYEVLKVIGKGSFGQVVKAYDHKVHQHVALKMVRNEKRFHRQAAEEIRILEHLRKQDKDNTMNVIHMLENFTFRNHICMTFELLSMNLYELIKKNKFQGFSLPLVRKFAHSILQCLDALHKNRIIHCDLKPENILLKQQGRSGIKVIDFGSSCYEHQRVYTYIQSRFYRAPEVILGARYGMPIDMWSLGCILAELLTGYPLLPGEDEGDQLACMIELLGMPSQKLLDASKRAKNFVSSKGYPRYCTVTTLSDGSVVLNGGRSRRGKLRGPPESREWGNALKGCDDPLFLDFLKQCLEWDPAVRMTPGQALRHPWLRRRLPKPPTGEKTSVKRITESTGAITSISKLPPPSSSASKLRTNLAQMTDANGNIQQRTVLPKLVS
Chain of MAPK12 (human) (P53778 whole entry, looked up): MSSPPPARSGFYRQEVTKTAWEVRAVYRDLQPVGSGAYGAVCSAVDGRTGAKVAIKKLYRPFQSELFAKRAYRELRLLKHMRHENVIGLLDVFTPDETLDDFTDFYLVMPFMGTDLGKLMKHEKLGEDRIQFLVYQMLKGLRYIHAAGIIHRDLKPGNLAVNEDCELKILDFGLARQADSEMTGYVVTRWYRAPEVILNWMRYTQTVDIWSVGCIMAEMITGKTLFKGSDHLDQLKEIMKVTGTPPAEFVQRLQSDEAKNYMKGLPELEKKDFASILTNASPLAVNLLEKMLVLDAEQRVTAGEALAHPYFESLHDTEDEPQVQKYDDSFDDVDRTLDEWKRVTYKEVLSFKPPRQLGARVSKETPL
Chain of AKT1 (human), P31749 [S473D] (P31749 whole entry S473D, looked up): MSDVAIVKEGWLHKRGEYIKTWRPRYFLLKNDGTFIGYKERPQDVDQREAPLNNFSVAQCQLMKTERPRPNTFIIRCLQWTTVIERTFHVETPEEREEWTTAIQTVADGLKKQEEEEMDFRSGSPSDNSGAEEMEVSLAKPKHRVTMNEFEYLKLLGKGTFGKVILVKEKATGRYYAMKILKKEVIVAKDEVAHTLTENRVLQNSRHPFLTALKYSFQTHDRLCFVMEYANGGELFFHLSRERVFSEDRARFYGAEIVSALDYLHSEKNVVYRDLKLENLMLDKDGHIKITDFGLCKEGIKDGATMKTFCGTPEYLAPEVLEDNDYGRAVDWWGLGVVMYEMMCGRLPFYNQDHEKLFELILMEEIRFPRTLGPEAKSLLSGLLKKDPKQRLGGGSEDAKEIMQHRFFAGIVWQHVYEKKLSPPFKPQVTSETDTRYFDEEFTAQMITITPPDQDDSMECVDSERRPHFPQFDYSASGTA
Chain of MAPK8 (human) (P45983 whole entry, looked up): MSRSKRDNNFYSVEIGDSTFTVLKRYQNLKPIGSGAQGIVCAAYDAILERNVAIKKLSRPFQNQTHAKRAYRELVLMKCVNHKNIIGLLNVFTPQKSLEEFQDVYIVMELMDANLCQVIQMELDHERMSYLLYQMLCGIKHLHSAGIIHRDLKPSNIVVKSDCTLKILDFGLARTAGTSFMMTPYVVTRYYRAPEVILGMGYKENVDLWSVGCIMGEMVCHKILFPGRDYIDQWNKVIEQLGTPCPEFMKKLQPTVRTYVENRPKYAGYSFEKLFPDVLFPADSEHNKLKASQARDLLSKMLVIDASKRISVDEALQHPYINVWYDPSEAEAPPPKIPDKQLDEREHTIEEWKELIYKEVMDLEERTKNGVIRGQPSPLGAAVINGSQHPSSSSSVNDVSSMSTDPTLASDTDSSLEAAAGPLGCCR
Chain of PLK1 (human) (P53350 whole entry, looked up): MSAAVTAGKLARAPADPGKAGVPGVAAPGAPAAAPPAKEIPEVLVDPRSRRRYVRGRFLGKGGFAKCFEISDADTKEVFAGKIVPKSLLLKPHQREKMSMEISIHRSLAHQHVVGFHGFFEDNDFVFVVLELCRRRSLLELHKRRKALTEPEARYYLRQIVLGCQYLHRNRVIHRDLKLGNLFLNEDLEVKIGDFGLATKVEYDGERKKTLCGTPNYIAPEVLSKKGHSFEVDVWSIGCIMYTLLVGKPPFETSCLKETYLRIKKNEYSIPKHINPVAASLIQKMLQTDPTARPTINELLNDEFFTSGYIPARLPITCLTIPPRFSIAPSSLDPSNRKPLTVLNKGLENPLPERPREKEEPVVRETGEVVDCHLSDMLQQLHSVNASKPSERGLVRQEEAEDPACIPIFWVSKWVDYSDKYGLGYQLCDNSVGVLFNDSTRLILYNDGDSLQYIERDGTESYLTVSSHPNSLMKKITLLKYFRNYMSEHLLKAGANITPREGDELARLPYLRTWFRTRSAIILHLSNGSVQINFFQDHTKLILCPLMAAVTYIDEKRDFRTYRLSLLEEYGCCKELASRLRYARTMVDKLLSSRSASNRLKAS
Chain of MAP3K11 (human) (Q16584 whole entry, looked up): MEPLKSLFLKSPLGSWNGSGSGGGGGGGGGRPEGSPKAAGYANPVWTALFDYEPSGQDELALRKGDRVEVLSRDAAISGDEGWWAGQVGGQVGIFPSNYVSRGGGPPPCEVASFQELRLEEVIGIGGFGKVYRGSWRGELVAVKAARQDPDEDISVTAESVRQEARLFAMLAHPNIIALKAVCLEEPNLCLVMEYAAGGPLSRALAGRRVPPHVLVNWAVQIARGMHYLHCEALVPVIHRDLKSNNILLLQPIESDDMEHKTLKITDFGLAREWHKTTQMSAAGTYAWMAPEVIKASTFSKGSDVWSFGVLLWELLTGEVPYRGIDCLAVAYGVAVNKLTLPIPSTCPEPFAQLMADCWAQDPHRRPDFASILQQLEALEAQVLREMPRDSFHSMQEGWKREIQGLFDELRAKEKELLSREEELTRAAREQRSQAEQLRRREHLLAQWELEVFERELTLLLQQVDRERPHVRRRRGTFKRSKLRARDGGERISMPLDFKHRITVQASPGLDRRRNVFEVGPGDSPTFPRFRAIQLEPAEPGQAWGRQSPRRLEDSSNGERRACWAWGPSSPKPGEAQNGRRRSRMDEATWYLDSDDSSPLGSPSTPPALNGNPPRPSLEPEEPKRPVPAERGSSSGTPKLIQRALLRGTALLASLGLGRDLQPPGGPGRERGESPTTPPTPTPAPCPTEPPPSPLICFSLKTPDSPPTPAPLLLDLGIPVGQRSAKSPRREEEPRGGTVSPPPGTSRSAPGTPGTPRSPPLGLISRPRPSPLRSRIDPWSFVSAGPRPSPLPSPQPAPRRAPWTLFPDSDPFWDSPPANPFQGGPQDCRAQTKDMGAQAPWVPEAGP
Chain of PAK4 (human) (O96013 whole entry, looked up): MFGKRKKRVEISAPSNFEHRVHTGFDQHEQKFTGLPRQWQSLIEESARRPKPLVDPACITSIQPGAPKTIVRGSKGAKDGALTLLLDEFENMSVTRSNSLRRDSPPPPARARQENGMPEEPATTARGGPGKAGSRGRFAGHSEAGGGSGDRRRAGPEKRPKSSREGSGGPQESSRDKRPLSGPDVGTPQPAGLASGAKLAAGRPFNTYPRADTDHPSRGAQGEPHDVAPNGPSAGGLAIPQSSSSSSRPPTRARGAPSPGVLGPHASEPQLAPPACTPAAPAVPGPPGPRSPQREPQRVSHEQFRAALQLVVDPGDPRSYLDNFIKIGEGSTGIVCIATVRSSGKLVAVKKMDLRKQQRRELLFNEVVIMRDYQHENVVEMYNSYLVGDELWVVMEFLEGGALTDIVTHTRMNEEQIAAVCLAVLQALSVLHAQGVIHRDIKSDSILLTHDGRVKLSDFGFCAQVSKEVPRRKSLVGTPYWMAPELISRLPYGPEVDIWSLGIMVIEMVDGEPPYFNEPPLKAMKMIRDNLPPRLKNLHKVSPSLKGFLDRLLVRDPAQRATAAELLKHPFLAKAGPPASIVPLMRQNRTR
Chain of SGK1 (human), O00141 [S422D] (O00141 whole entry S422D, looked up): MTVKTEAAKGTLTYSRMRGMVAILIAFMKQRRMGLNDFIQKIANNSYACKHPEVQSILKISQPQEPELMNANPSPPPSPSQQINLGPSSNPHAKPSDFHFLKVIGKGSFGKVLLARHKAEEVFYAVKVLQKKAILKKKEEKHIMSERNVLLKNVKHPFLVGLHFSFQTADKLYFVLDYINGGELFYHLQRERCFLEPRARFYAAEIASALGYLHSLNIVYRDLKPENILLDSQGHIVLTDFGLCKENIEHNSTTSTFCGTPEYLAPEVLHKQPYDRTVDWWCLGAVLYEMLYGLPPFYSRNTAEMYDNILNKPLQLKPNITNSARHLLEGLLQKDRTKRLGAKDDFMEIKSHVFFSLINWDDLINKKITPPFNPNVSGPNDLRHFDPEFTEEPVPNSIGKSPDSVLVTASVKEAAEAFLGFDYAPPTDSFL

## O=C(O)c1ccc(-c2c[nH]c3ncc(-c4ccccc4)cc23)cc1C1CCCC1
DYRK2 (human); compound 0.1 µM
  residual activity: 101%
DYRK2 (human); compound 1.0 µM
  residual activity: 20%
DYRK2 (human); compound 10.0 µM
  residual activity: 2%
ERBB4 (human); compound 0.1 µM
  residual activity: 105%
ERBB4 (human); compound 1.0 µM
  residual activity: 86%
ERBB4 (human); compound 10.0 µM
  residual activity: 71%
RPS6KA1 KD1 KD2 (human); compound 0.1 µM
  residual activity: 102%
RPS6KA1 KD1 KD2 (human); compound 1.0 µM
  residual activity: 93%
RPS6KA1 KD1 KD2 (human); compound 10.0 µM
  residual activity: 38%
PRKAA1 or PRKAA2 (rat); compound 0.1 µM
  residual activity: 49%
PRKAA1 or PRKAA2 (rat); compound 1.0 µM
  residual activity: 2%
PRKAA1 or PRKAA2 (rat); compound 10.0 µM
  residual activity: 1%
MAPK8 (human); compound 0.1 µM
  residual activity: 81%
MAPK8 (human); compound 1.0 µM
  residual activity: 74%
MAPK8 (human); compound 10.0 µM
  residual activity: 39%
EPHB2 (human)
  residual activity: 86%
[1]; compound 0.1 µM
  residual activity: 104%
[1]; compound 1.0 µM
  residual activity: 72%
[1]; compound 10.0 µM
  residual activity: 57%
CHEK2 (human); compound 0.1 µM
  residual activity: 83%
CHEK2 (human); compound 1.0 µM
  residual activity: 40%
CHEK2 (human); compound 10.0 µM
  residual activity: 28%
PRKCA (human); compound 0.1 µM
  residual activity: 100%
PRKCA (human); compound 1.0 µM
  residual activity: 61%
PRKCA (human); compound 10.0 µM
  residual activity: 33%
PLK1 (human); compound 0.1 µM
  residual activity: 93%
PLK1 (human); compound 1.0 µM
  residual activity: 31%
PLK1 (human); compound 10.0 µM
  residual activity: 5%
MAPK13 (human); compound 0.1 µM
  residual activity: 118%
MAPK13 (human); compound 1.0 µM
  residual activity: 87%
MAPK13 (human); compound 10.0 µM
  residual activity: 62%
AURKA (human)
  residual activity: 78%
SYK (human); compound 0.1 µM
  residual activity: 99%
SYK (human); compound 1.0 µM
  residual activity: 66%
SYK (human); compound 10.0 µM
  residual activity: 12%
CaMK1 (human); compound 0.1 µM
  residual activity: 104%
CaMK1 (human); compound 1.0 µM
  residual activity: 99%
CaMK1 (human); compound 10.0 µM
  residual activity: 80%
MAPK10 (human)
  residual activity: 73%
MAPK3 (human); compound 0.1 µM
  residual activity: 105%
MAPK3 (human); compound 1.0 µM
  residual activity: 75%
MAPK3 (human); compound 10.0 µM
  residual activity: 39%
MAPK1 (human); compound 0.1 µM
  residual activity: 100%
MAPK1 (human); compound 1.0 µM
  residual activity: 103%
MAPK1 (human); compound 10.0 µM
  residual activity: 61%
MAPKAPK3 (human)
  residual activity: 101%
PAK4 (human); compound 0.1 µM
  residual activity: 96%
PAK4 (human); compound 1.0 µM
  residual activity: 85%
PAK4 (human); compound 10.0 µM
  residual activity: 39%
DYRK1A (human); compound 0.1 µM
  residual activity: 79%
DYRK1A (human); compound 1.0 µM
  residual activity: 47%
DYRK1A (human); compound 10.0 µM
  residual activity: 8%
PRKACA (human); compound 0.1 µM
  residual activity: 91%
PRKACA (human); compound 1.0 µM
  residual activity: 104%
PRKACA (human); compound 10.0 µM
  residual activity: 97%
EPHB3 (human); compound 0.1 µM
  residual activity: 108%
EPHB3 (human); compound 10.0 µM
  residual activity: 101%
IKBKE (human); compound 0.1 µM
  residual activity: 91%
IKBKE (human); compound 1.0 µM
  residual activity: 44%
IKBKE (human); compound 10.0 µM
  residual activity: 14%
MAPK12 (human); compound 0.1 µM
  residual activity: 106%
MAPK12 (human); compound 1.0 µM
  residual activity: 104%
MAPK12 (human); compound 10.0 µM
  residual activity: 35%
HIPK2 (human); compound 0.1 µM
  residual activity: 70%
HIPK2 (human); compound 1.0 µM
  residual activity: 58%
HIPK2 (human); compound 10.0 µM
  residual activity: 15%
MKNK1 (human); compound 0.1 µM
  residual activity: 28%
MKNK1 (human); compound 1.0 µM
  residual activity: 3%
MKNK1 (human); compound 10.0 µM
  residual activity: 3%
MST4 (human); compound 0.1 µM
  residual activity: 81%
MST4 (human); compound 1.0 µM
  residual activity: 68%
MST4 (human); compound 10.0 µM
  residual activity: 13%
BRSK2 (human); compound 0.1 µM
  residual activity: 86%
BRSK2 (human); compound 1.0 µM
  residual activity: 61%
BRSK2 (human); compound 10.0 µM
  residual activity: 20%
NUAK1 (human); compound 0.1 µM
  residual activity: 45%
NUAK1 (human); compound 1.0 µM
  residual activity: 15%
NUAK1 (human); compound 10.0 µM
  residual activity: 10%
MARK2 (human)
  residual activity: 88%
PAK7 (human); compound 0.1 µM
  residual activity: 110%
PAK7 (human); compound 1.0 µM
  residual activity: 88%
PAK7 (human); compound 10.0 µM
  residual activity: 38%
[2]; compound 0.1 µM
  residual activity: 56%
[2]; compound 1.0 µM
  residual activity: 9%
[2]; compound 10.0 µM
  residual activity: 1%
MAP3K11 (human); compound 0.1 µM
  residual activity: 75%
MAP3K11 (human); compound 1.0 µM
  residual activity: 33%
MAP3K11 (human); compound 10.0 µM
  residual activity: 5%
MAP2K6 (human)
  residual activity: 97%
NEK2 (human); compound 0.1 µM
  residual activity: 114%
NEK2 (human); compound 1.0 µM
  residual activity: 60%
NEK2 (human); compound 10.0 µM
  residual activity: 27%
